Fold induction data for 35 molecules are collected here from patent publication US9115341B2, “Method for expanding hematopoietic stem cells using heterocyclic compound” (Nissan Chemical Industries, Ltd., priority 2007, dated 2015).

The first assay deals with human cord blood-derived CD34+ cells. Put plainly: Expansion of CD34+ cells from human cord blood-derived CD34+ cells. Type of assay: cell-based. The conditions noted are these: 168 h, 0.3 μg/mL compound, number of CD34+ cells relative to absence of compound, 7 days, StemSpan SFEM with 100 ng/mL SCF, read-out: Expansion efficiency. As for the experimental part:
Commercially available human cord blood-derived CD34^+ cells (Cambrex Bio Science Walkersville) were plated on a 12-well plate (Corning) (from 5000 to 10000 cells/1 ml/well). As the culture medium, StemSpan SFEM (Stemcell Technologies) containing 100 ng/mL SCF (R&D Systems) was used, and Compounds Nos. 1 to 37 dissolved in dimethyl sulfoxide were added in an amount of 0.1% (v/v) to a final concentration of 0.3 or 1 μg/mL.
After the cells were incubated in liquid culture at 37° C. for 7 days in a CO2 incubator (in an atmosphere containing 5 vol % CO2), the total number of cells was counted by trypan blue assay (Invitrogen) or Flow-Count™ fluorosphere assay (Beckman Coulter). The number of CD34^+ cells was calculated as follows. After the incubation, the cells in the liquid culture was stained with a CD34 antibody (PE, Becton, Dickinson and Company). The stained cells were analyzed with a flow cytometer (Beckman Coulter) to determined the proportion of CD34^+ cells, which was multiplied by the total number of cells to calculate the number of CD34^+ cells.
The expansion efficiencies in the presence of 0.3 μg/mL or 1 μg/mL of compounds based on the number of CD34^+ cells in the absence of them are shown in Table 2 on a scale of A for expansion efficiencies of 3 or greater, and B for expansion efficiencies of at least 2 and less than 3.
With `C/C(=N\NC(=O)c1ccc(C(=O)NCCc2cccnc2)s1)c1csc(-c2ccc(C(F)(F)F)cc2)c1O` [Compound 33], the fold induction at 0.3 µg/mL is at least 3. Regarding `C/C(=N\NC(=O)c1ccc(C(=O)NCCc2cccnc2)s1)c1csc(-c2ccc(Cl)c(Cl)c2)c1O` [Compound 29], the fold induction at 0.3 µg/mL is at least 3. Regarding `C/C(=N\NC(=O)c1ccc(C(=O)NCCc2ccccn2)s1)c1csc(-c2ccc(Cl)c(Cl)c2)c1O` [Compound 27], the fold induction at 0.3 µg/mL fell in the range of 2 to 3. The same measure, in the same setting: the same measure for `C/C(=N\NC(=O)c1ccc(C(=O)NCCc2ccncc2)s1)c1csc(-c2ccc(C(F)(F)F)cc2)c1O` [Compound 31]: at least 3. On the same count and under the same terms, the result for `C/C(=N\NC(=O)c1ccc(C(=O)NCCc2cccnc2)s1)c1csc(-c2ccc(OC(F)(F)F)cc2)c1O` [Compound 32] reads at least 3.

As to `C/C(=N\NC(=O)c1ccc(C(=O)NCCc2ccncc2)s1)c1csc(-c2ccc(OC(F)(F)F)cc2)c1O` [Compound 30], the fold induction at 0.3 µg/mL is at least 3.

Still in this assay, the particulars now being: 168 h, 1 μg/mL compound, number of CD34+ cells relative to absence of compound, 7 days, StemSpan SFEM with 100 ng/mL SCF, read-out: Expansion efficiency.
With `C/C(=N\NC(=O)c1ccc(C(=O)O)c([NH2+][O-])c1)c1csc(-c2ccc(C(F)(F)F)cc2)c1O` [Compound 8], the fold induction at 1 µg/mL was at least 3. As to `C/C(=N\NC(=S)Nc1ccc(C(=O)O)c([N+](=O)[O-])c1)c1csc(-c2ccc(Cl)c(Cl)c2)c1O` [Compound 11], the fold induction at 1 µg/mL was at least 3. As to `C/C(=N\NC(=S)Nc1ccc(C(=O)O)cc1)c1csc(-c2ccc(C)c(C)c2)c1O` [Compound 22], the fold induction at 1 µg/mL was at least 3. Consider `C/C(=N\NC(=S)Nc1ccc(C(=O)O)c(Cl)c1)c1csc(-c2ccc(Cl)c(Cl)c2)c1O` [Compound 14], for which the fold induction at 1 µg/mL was at least 3. On to `C/C(=N\NC(=O)c1ccc(C(=O)NCCCc2ccncc2)s1)c1csc(-c2ccc(Cl)c(Cl)c2)c1O` [Compound 34], for which the fold induction at 1 µg/mL was at least 3. Take `C/C(=N\NC(=S)Nc1ccc(C(=O)O)c(Cl)c1)c1nn(C)c(-c2ccc(C(F)(F)F)cc2)c1O` [Compound 13]: the fold induction at 1 µg/mL was at least 3.

On to `C/C(=N\NC(=S)Nc1ccc(C(=O)O)c([N+](=O)[O-])c1)c1csc(-c2ccc(C(F)(F)F)cc2)c1O` [Compound 12], for which the fold induction at 1 µg/mL is at least 3. As for `C/C(=N\NC(=S)Nc1ccc(C(=O)O)cc1)c1nn(C)c(-c2ccc(C(F)(F)F)cc2)c1O` [Compound 1], the fold induction at 1 µg/mL was at least 3.

Turning to `C/C(=N\NC(=O)c1ccc(C(=O)O)c([NH2+][O-])c1)c1csc(-c2ccc(Cl)c(Cl)c2)c1O` [Compound 5], the fold induction at 1 µg/mL lay within 2 to 3. Take `C/C(=N\NC(=S)Nc1cccc(C(=O)O)c1)c1csc(-c2ccc(C)c(C)c2)c1O` [Compound 21]: the fold induction at 1 µg/mL was at least 3. Still for that read-out and setting: the same measure for `C/C(=N\NC(=S)Nc1cccc(C(=O)O)c1)c1csc(-c2ccc(Cl)c(Cl)c2)c1O` [Compound 16]: 2 to 3. Still for that read-out and setting: the result for `C/C(=N\NC(=O)c1ccc(C(=O)N2CCCC2)s1)c1csc(-c2ccc(C(F)(F)F)cc2)c1O` [Compound 15] reads at least 3. Take `C/C(=N\NC(=O)c1ccc(C(=O)NCCc2ccnn2C)s1)c1csc(-c2ccc(Cl)c(Cl)c2)c1O` [Compound 35]: the fold induction at 1 µg/mL was at least 3. As for `C/C(=N\NC(=S)Nc1ccc(S(N)(=O)=O)cc1)c1nn(C)c(-c2ccc(Cl)c(Cl)c2)c1O` [Compound 23], the fold induction at 1 µg/mL lay within 2 to 3.

Consider `C/C(=N\NC(=O)c1ccc(C(=O)NC(C)C)s1)c1nn(C)c(-c2ccc(Cl)c(Cl)c2)c1O` [Compound 26], for which the fold induction at 1 µg/mL is at least 3. Take `C/C(=N\NC(=O)c1ccc(C(=O)O)c([NH2+][O-])c1)c1csc(-c2ccc(C(C)(C)C)cc2)c1O` [Compound 4]: the fold induction at 1 µg/mL was at least 3.

As to `C/C(=N\NC(=O)c1ccc(C(=O)O)s1)c1csc(-c2ccc(C(F)(F)F)cc2)c1O` [Compound 7], the fold induction at 1 µg/mL is at least 3. Take `C/C(=N\NC(=O)c1ccc(C(=O)NCC(=O)O)s1)c1csc(-c2ccc(OC(F)(F)F)cc2)c1O` [Compound 25]: the fold induction at 1 µg/mL was at least 3. On the same count and under the same terms, the result for `C/C(=N\NC(=O)c1ccc(C(=O)O)s1)c1csc(-c2ccc(Cl)c(Cl)c2)c1O` [Compound 6] reads 2 to 3; that for `C/C(=N\NC(=O)c1ccc(C(=O)NCCO)s1)c1csc(-c2ccc(C(F)(F)F)cc2)c1O` [Compound 19], at least 3. As to `C/C(=N\NC(=S)Nc1cccc(C(=O)O)c1)c1csc(-c2ccc(C(C)(C)C)cc2)c1O` [Compound 20], the fold induction at 1 µg/mL was at least 3. Consider `C/C(=N\NC(=S)Nc1ccc(C(=O)O)c([N+](=O)[O-])c1)c1csc(-c2ccc(C(C)(C)C)cc2)c1O` [Compound 10], for which the fold induction at 1 µg/mL is at least 3.

`C/C(=N\NC(=O)c1ccc(C(=O)NCCc2ccncc2)s1)c1csc(-c2ccc(Cl)c(Cl)c2)c1O` [Compound 28]: the fold induction at 1 µg/mL was at least 3. With `C/C(=N\NC(=O)c1ccc(C(=O)O)cc1)c1csc(-c2ccc(Cl)c(Cl)c2)c1O` [Compound 2], the fold induction at 1 µg/mL lay within 2 to 3.

With `C/C(=N\NC(=S)Nc1ccc(C(=O)O)cc1)c1csc(-c2ccc(C(F)(F)F)cc2)c1O` [Compound 3], the fold induction at 1 µg/mL was at least 3.

On to `C/C(=N\NC(=O)c1ccc(C(=O)NCc2cc(C)n(C)n2)s1)c1nn(C)c(-c2ccc(C(F)(F)F)cc2)c1O` [Compound 37], for which the fold induction at 1 µg/mL was at least 3. Still for that read-out and setting: the result for `C/C(=N\NC(=O)c1ccc(C(=O)NCCCc2ccncc2)s1)c1csc(-c2ccc(C(F)(F)F)cc2)c1O` [Compound 36] reads at least 3; that for `C/C(=N\NC(=O)c1ccc(C(=O)O)cc1N)c1nn(C)c(-c2ccc(C(F)(F)F)cc2)c1O` [Compound 24], at least 3. Take `C/C(=N\NC(=S)Nc1cccc(C(=O)O)c1)c1nn(C)c(-c2ccc(C(F)(F)F)cc2)c1O` [Compound 18]: the fold induction at 1 µg/mL is at least 3.
